Test results: PMC12304293, “Combatting virulent gut bacteria by inhibiting the biosynthesis of a two-component lanthipeptide toxin” (Nature Communications, 2025)
Where “and” joins values, the source holds several entries; their conditions need not be identical. Equal entries are not always repeated. Where two headings read alike, the source gives them in different places. Non-standard residues stand in square brackets, D forms with d. Residues, ends and D or L forms follow the SMILES beside them. *: point of attachment. boroGlu = O=C(O)CC[C@H](N*)B(O)O; Gly(cPr) = N[C@H](C(=O)O)C1CC1

Experiments:
[1] = system: E. faecalis FA2-2 (pAM714), E. faecalis ATCC 29212; format: cell-based, Enterococcus faecalis; conditions: for growth curve reading, ATCC 29212 +9: E. faecalis ATCC 29212 with 9; for growth curve reading, ATCC 29212 +9 / growth curve reading, pAM714 +9: trials 1-3; for growth curve reading, pAM714 +9: E. faecalis pAM714 with 9
Description: To a 96-well plate, BHI media was added containing 200 µM of inhibitor 9. An overnight culture of E. faecalis was diluted to a concentration of 10^6 CFU/mL and an equal volume of this culture was added to the well containing inhibitor. A growth control was prepared by combining the diluted bacterial cells with an equal volume of sterile BHI. A sterility control well was filled with sterile BHI to the same volume. The 96-well plate was transferred to a plate reader preheated to 37 °C and the plate was shaken continuously. The OD600 of each well was measured over the course of 24 h. Uncorrected OD600 values were plotted as a function of time. […]
or B) E. faecalis ATCC 29212. Wells containing B HI media were inocul ated with 1 x 106 C F U / m L of E. faecalis .I nhibitor 9 was added to achieve a well concentration of 100 µM. A growth control well not containing 9 an d a sterile control not co ntaining bacteria were s et up on the same plate.
The plate was incubated with shaking at 37 ̊C and the OD600 was measured every 30 min for 18h.
This experiment was conducted on three biological samples (n = 3). Error bars represent the standard of devi ation and are c enter ed at the me an. Source data are p rovided as a Source Data file. […]

[2] = format: in vitro ADME; conditions: 100 µM, 25% human serum, 3 h, 37 °C
Description: Similiarly, 9 was diluted to 100 µM in BHI that was inoculated with E. faecalis ATCC 29212 before incubating at 37 °C for 20 h. The overnight culture was flash frozen and lyophilized. The lyophilized samples were extracted with a volume of 90% methanol/10% water that was equal to the volume of the sample prior to lyophilization. The extract was assumed to have a concentration of 100 µM. […]
Human Serum + 9 Human Serum
Log(Concentration (µM)) Log(Concentration(µM))
Supplementary Figure 19. The stability of inhibitor 9 in the pres ence of human serum or C+ E. faecalis. A ) C y l A i nhibition activity of an extract of human s erum treated with 9 (100 μM) for 3 h at 37 ̊C. The resulting solution was used to determine the remaining activity of the inhibitor in a […]
CylA activity assay. […] This experiment was perform ed on three different samples of inhibitor (n = 3). B) CylA inhibition activity of an extract of E. faecalis that was treated with 9 (100 μM) for 20 h at 37 ̊C (+9 +E. faecalis). The resulting solution was used to determine the remaining activity of the inhibitor in a CylA activity assay. An IC50 equal to 36 ± 3 nM was determin ed. Thes e values are higher than the IC50 for a fresh batch of […]
(also on this page, place not known: determined. inhibition CylA These IC 50 presence serum This performed A) Non-linear fitting v i/vo IC 50. […]

CC(=O)NCC(=O)N[C@@H](CC(=O)O)C(=O)N[C@H](C(=O)N[C@@H](CCC(N)=O)C(=O)N[C@@H](C)C(=O)N[C@@H](CCC(=O)O)B(O)O)C1CC1 [Compound 9] (Ac-GD[Gly(cPr)]QA-boroGlu)
growth of C+ E. faecalis ([1]; 100 µM, FA2-2 (pAM714) or ATCC 29212): did not impact the growth | growth curve reading, ATCC 29212 +9 ([1]; time 0 h): 0.1154 and 0.116 and 0.0922 | growth curve reading, ATCC 29212 +9 ([1]; time 0.5 h): 0.0985 and 0.1041 and 0.0924 | growth curve reading, ATCC 29212 +9 ([1]; time 1 h): 0.1003 and 0.1065 and 0.0941 | growth curve reading, ATCC 29212 +9 ([1]; time 4 h): 0.3147 and 0.3334 and 0.308 | growth curve reading, ATCC 29212 +9 ([1]; time 4.5 h): 0.4828 and 0.507 and 0.4713 | growth curve reading, ATCC 29212 +9 ([1]; time 5 h): 0.7061 and 0.7328 and 0.6866 | growth curve reading, ATCC 29212 +9 ([1]; time 6 h): 0.8111 and 0.8333 and 0.7942 | growth curve reading, ATCC 29212 +9 ([1]; time 6.5 h): 0.8209 and 0.8395 and 0.8063 | growth curve reading, ATCC 29212 +9 ([1]; time 7 h): 0.8266 and 0.8438 and 0.8065 | growth curve reading, ATCC 29212 +9 ([1]; time 8 h): 0.8109 and 0.8262 and 0.7852 | growth curve reading, ATCC 29212 +9 ([1]; time 8.5 h): 0.7898 and 0.8142 and 0.7555 | growth curve reading, ATCC 29212 +9 ([1]; time 9 h): 0.756 and 0.7924 and 0.7138 | growth curve reading, ATCC 29212 +9 ([1]; time 9.5 h): 0.7216 and 0.7609 and 0.6743 | growth curve reading, ATCC 29212 +9 ([1]; time 10 h): 0.6983 and 0.7557 and 0.6452 | growth curve reading, ATCC 29212 +9 ([1]; time 10.5 h): 0.6599 and 0.7472 and 0.6197 | growth curve reading, ATCC 29212 +9 ([1]; time 11 h): 0.651 and 0.7261 and 0.5927 | growth curve reading, ATCC 29212 +9 ([1]; time 12 h): 0.5996 and 0.6855 and 0.5551 | growth curve reading, ATCC 29212 +9 ([1]; time 12.5 h): 0.6003 and 0.6798 and 0.5403 | growth curve reading, ATCC 29212 +9 ([1]; time 13 h): 0.594 and 0.6632 and 0.5265 | growth curve reading, ATCC 29212 +9 ([1]; time 13.5 h): 0.5622 and 0.6648 and 0.515 | growth curve reading, ATCC 29212 +9 ([1]; time 14 h): 0.5532 and 0.6505 and 0.5057 | growth curve reading, ATCC 29212 +9 ([1]; time 14.5 h): 0.547 and 0.6403 and 0.4947 | growth curve reading, ATCC 29212 +9 ([1]; time 15 h): 0.5331 and 0.6268 and 0.5432 | growth curve reading, ATCC 29212 +9 ([1]; time 15.5 h): 0.5632 and 0.6227 and 0.5048 | growth curve reading, ATCC 29212 +9 ([1]; time 16 h): 0.5401 and 0.6149 and 0.5008 | growth curve reading, ATCC 29212 +9 ([1]; time 16.5 h): 0.5274 and 0.6109 and 0.5013 | growth curve reading, ATCC 29212 +9 ([1]; time 17 h): 0.5274 and 0.5922 and 0.4935 | growth curve reading, ATCC 29212 +9 ([1]; time 17.5 h): 0.5197 and 0.5739 and 0.5382 | growth curve reading, ATCC 29212 +9 ([1]; time 18 h): 0.5155 and 0.5767 and 0.5324 | growth curve reading, pAM714 +9 ([1]; time 0 h): 0.0946 and 0.0915 and 0.093 | growth curve reading, pAM714 +9 ([1]; time 0.5 h): 0.0971 and 0.0931 and 0.0938 | growth curve reading, pAM714 +9 ([1]; time 1 h): 0.099 and 0.095 and 0.0956 | growth curve reading, pAM714 +9 ([1]; time 4 h): 0.1926 and 0.195 and 0.1996 | growth curve reading, pAM714 +9 ([1]; time 4.5 h): 0.2491 and 0.255 and 0.2626 | growth curve reading, pAM714 +9 ([1]; time 5 h): 0.3385 and 0.3521 and 0.3631 | growth curve reading, pAM714 +9 ([1]; time 6 h): 0.6065 and 0.6337 and 0.65 | growth curve reading, pAM714 +9 ([1]; time 6.5 h): 0.7256 and 0.7465 and 0.7496 | growth curve reading, pAM714 +9 ([1]; time 7 h): 0.7199 and 0.7425 and 0.7485 | growth curve reading, pAM714 +9 ([1]; time 8 h): 0.7208 and 0.7411 and 0.7548 | growth curve reading, pAM714 +9 ([1]; time 8.5 h): 0.7272 and 0.7466 and 0.7599 | growth curve reading, pAM714 +9 ([1]; time 9 h): 0.7255 and 0.7488 and 0.7571 | growth curve reading, pAM714 +9 ([1]; time 9.5 h): 0.7184 and 0.7445 and 0.7497 | growth curve reading, pAM714 +9 ([1]; time 10 h): 0.708 and 0.736 and 0.7402 | growth curve reading, pAM714 +9 ([1]; time 10.5 h): 0.6972 and 0.7258 and 0.7305 | growth curve reading, pAM714 +9 ([1]; time 11 h): 0.6856 and 0.717 and 0.7218 | growth curve reading, pAM714 +9 ([1]; time 12 h): 0.6642 and 0.6996 and 0.7054 | growth curve reading, pAM714 +9 ([1]; time 12.5 h): 0.6586 and 0.6909 and 0.6988 | growth curve reading, pAM714 +9 ([1]; time 13 h): 0.6446 and 0.6836 and 0.6924 | growth curve reading, pAM714 +9 ([1]; time 13.5 h): 0.6425 and 0.6781 and 0.6878 | growth curve reading, pAM714 +9 ([1]; time 14 h): 0.6308 and 0.6721 and 0.6814 | growth curve reading, pAM714 +9 ([1]; time 14.5 h): 0.6266 and 0.6677 and 0.6764 | growth curve reading, pAM714 +9 ([1]; time 15 h): 0.6144 and 0.6613 and 0.6745 | growth curve reading, pAM714 +9 ([1]; time 15.5 h): 0.6099 and 0.6586 and 0.6678 | growth curve reading, pAM714 +9 ([1]; time 16 h): 0.6043 and 0.6548 and 0.6659 | growth curve reading, pAM714 +9 ([1]; time 16.5 h): 0.6012 and 0.6523 and 0.6623 | growth curve reading, pAM714 +9 ([1]; time 17 h): 0.5956 and 0.6495 and 0.6597 | growth curve reading, pAM714 +9 ([1]; time 17.5 h): 0.5906 and 0.6489 and 0.6599 | growth curve reading, pAM714 +9 ([1]; time 18 h): 0.5896 and 0.647 and 0.6581 | stability in human serum [2]: relatively good stability
